The text below walks through data of ChEMBL document CHEMBL5223073, “Andrographolide suppresses cisplatin-induced endothelial hyperpermeability through activation of PI3K/Akt and eNOS -derived nitric oxide” (Bioorg Med Chem, 2020).

Calls of active or inactive are those of the source. No cut-off for these calls is given here.

For data set [1], the system named is HUVEC. The data set is described as follows: Downregulation of cisplatin-induced ICAM1 protein expression in HUVEC cells at 30 uM preincubated with PI3K inhibitor, wortmannin followed by compound addition and further incubated for 1 hr by Western blot analysis. The class given is functional, cell-based. Conditions: Homo sapiens. (Immunoblotting shows a protein as a band on a membrane.)

Data set [2] concerns the target Transcription factor p65 (Homo sapiens) (UniProt Q04206). As to the kind of experiment: Inhibition of cisplatin-induced phosphorylation of p65 subunit at Ser536 residue in HUVEC cells at 30 uM incubated for 1 hr by Western blot analysis. The class given is cell-based.
Data set [3] has as its system HUVEC. The data set is described as follows: Inhibition of cisplatin-induced PKCalpha translocation in HUVEC cells assessed as reduction in membrane PKCalpha activity at 30 uM incubated for 15 mins in presence of cisplatin by Western blot analysis. The class given is functional, cell-based. The note with it: Homo sapiens.
Data set [4] relates to HUVEC. The data set is described as follows: Improvement in cisplatin-induced endothelial monolayer integrity in HUVEC cells assessed as reduction in transmembrane movement of albumin at 30 uM preincubated with compound in presence of PI3K inhibitor, wortmannin followed by cisplatin stimulation and measured after 2 hrs. The class given is functional, cell-based. The note with it: Homo sapiens.

Data set [5] has as its system HUVEC. As to the kind of experiment: Activation of AKT in cisplatin-treated HUVEC cells assessed as increase in AKT phosphorylation at 30 uM measured after 5 to 240 mins by Western blot analysis. The class given is cell-based. The note with it: Homo sapiens, filed as activator, time 5-240 min.
Data set [6] concerns HUVEC. As to the kind of experiment: Effect on total eNOS protein level in cisplatin-treated HUVEC cells at 30 uM measured after 5 to 240 mins by Western blot analysis. The class given is functional, cell-based. The note with it: Homo sapiens, time 5-240 min.
In data set [7] the target is T1, Nitric oxide synthase 3 (Homo sapiens) (UniProt P29474).
T1 sequence (whole entry): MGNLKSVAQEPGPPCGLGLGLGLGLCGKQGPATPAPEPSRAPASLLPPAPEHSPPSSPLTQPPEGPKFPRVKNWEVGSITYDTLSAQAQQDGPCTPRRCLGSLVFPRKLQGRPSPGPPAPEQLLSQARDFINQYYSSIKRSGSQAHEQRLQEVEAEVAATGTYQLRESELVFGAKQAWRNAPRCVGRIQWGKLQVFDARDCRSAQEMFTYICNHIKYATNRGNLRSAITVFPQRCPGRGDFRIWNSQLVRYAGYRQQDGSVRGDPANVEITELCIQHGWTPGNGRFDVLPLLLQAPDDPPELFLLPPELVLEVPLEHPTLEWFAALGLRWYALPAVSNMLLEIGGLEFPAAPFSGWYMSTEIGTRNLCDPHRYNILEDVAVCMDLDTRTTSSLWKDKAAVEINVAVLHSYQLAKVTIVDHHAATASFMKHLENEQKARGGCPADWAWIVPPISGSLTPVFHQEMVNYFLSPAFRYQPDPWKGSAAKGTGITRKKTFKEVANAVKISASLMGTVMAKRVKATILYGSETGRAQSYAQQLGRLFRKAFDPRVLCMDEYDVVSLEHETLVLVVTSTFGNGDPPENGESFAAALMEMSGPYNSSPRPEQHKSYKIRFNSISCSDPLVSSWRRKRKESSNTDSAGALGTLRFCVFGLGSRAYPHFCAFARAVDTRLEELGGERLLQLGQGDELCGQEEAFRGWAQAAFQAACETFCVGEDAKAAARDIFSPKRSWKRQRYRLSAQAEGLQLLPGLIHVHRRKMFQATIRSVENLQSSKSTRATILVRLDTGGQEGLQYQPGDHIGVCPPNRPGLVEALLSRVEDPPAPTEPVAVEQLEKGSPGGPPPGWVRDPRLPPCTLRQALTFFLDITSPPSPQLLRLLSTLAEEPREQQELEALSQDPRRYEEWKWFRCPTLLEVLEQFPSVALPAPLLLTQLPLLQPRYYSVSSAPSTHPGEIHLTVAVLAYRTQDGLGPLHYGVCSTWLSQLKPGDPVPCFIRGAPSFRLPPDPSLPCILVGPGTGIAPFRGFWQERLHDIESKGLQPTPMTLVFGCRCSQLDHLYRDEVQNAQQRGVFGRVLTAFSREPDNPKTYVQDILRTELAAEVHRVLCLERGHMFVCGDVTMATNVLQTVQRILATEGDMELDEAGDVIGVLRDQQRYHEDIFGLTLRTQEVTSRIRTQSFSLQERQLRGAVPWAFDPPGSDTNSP
As to the kind of experiment: Activation of eNOS activity in cisplatin-treated HUVEC cells assessed as increase in intracellular cGMP level at 30 uM preincubated with eNOS inhibitor, N(G)-nitro-L-arginine methyl ester followed by compound addition and further incubated for 15 mins by radioimmunoassay. The class given is cell-based.

Data set [8] concerns HUVEC. The data set is described as follows: Cytotoxicity against HUVEC cells assessed as reduction in cell viability at <=30 uM measured after 24 hrs by MTT assay. The class given is toxicity, cell-based. The note with it: human. In general terms: Formazan colour is commonly taken as a measure of viable cells.
Data set [9] concerns the target T1, Nitric oxide synthase 3 (Homo sapiens). As to the kind of experiment: Activation of eNOS activity in cisplatin-treated HUVEC cells assessed as increase in eNOS phosphorylation at Ser1177 residue at 30 uM measured after 5 to 60 mins by Western blot analysis. The note with it: filed as activator, time 5-60 min. The class given is cell-based.
The subject of data set [10] is HUVEC. As to the kind of experiment: Improvement in cisplatin-induced endothelial monolayer integrity in HUVEC cells assessed as reduction in transmembrane movement of albumin at 30 uM preincubated with compound in presence of eNOS inhibitor, N(G)-nitro-L-arginine methyl ester followed by cisplatin stimulation and measured after 2 hrs. The class given is functional, cell-based. Conditions: Homo sapiens.

Data set [11] concerns HUVEC. The data set is described as follows: Upregulation of cytosolic p65 level in cisplatin-treated HUVEC cells at 30 uM incubated for 1 hr by Western blot analysis. Conditions: Homo sapiens. The class given is functional, cell-based.
For data set [12], the target named is T1, Nitric oxide synthase 3 (Homo sapiens). As to the kind of experiment: Activation of eNOS activity in cisplatin-treated HUVEC cells assessed as increase in eNOS phosphorylation at Ser1177 residue at 30 uM preincubated with eNOS inhibitor, N(G)-nitro-L-arginine methyl ester followed by compound addition measured after 5 to 240 mins by Western blot analysis. The class given is cell-based. Conditions: time 5-240 min.

The target of data set [13] is Transcription factor p65 (Homo sapiens) (UniProt Q04206). The data set is described as follows: Inhibition of cisplatin-induced phosphorylation of p65 subunit at Ser536 residue in HUVEC cells at 30 uM preincubated with eNOS inhibitor, N(G)-nitro-L-arginine methyl ester followed by compound addition and further incubated for 1 hr by Western blot analysis. The class given is cell-based.
Chain of Transcription factor p65 (Homo sapiens) (Q04206 whole entry): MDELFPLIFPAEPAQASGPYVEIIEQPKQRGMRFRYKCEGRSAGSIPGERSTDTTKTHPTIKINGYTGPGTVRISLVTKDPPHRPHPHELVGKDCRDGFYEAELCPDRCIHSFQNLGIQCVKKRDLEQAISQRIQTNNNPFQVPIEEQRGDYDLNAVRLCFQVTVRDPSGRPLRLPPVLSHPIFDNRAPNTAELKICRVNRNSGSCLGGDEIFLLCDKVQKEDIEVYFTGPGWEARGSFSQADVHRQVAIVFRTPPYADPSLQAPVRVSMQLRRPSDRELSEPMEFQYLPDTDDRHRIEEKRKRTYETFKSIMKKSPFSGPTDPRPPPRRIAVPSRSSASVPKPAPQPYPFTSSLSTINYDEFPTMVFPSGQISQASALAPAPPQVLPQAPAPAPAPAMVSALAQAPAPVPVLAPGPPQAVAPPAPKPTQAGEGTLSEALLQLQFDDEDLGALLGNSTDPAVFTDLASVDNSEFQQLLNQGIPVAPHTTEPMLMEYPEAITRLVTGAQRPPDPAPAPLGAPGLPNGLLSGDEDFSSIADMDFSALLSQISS

In data set [14] the target is T2, NF-kappa-B inhibitor alpha (Homo sapiens) (UniProt P25963).
T2 sequence (whole entry): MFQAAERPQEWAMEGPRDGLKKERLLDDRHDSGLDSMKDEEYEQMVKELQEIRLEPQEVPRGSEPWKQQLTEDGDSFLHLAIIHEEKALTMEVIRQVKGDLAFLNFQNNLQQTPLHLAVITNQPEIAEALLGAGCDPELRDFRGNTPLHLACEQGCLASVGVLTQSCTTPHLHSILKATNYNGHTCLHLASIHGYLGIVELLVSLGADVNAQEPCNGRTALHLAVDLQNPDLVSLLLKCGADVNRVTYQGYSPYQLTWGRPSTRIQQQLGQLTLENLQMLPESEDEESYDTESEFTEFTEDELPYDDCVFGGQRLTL
As to the kind of experiment: Inhibition of cisplatin-induced phosphorylation of IkappaBalpha at Ser32/36 residue in HUVEC cells at 30 uM incubated for 1 hr by Western blot analysis. The class given is cell-based.

Data set [15] has as its system HUVEC. As to the kind of experiment: Activation of AKT in cisplatin-treated HUVEC cells assessed as increase in AKT phosphorylation at 30 uM pretreated with PI3K inhibitor, wortmannin followed by compound addition and measured after 240 mins by Western blot analysis. The class given is cell-based. Conditions: Homo sapiens.
Data set [16] concerns HUVEC. As to the kind of experiment: Activation of PI3K in cisplatin-treated HUVEC cells assessed as increase PIP3 formation at 30 uM pretreated for 30 mins in presence of PI3K inhibitor, wortmannin followed by cisplatin addition by immunoprecipitation analysis. The class given is cell-based. Conditions: Homo sapiens.

Regarding `C=C1CC[C@@H]2[C@](C)(CO)[C@H](O)CC[C@@]2(C)[C@@H]1C/C=C1/C(=O)OC[C@H]1O` [ANDROGRAPHOLIDE], the result (with HUVEC [1]; with HUVEC [4]; in the data set with HUVEC [6]; in data set [7]; with HUVEC [10]; in [12]) was inactive. For the same molecule, the result in the data set with HUVEC [15] and in the data set with HUVEC [16] was inactive. In addition, the inhibition entry (in data set [2]; in the data set with HUVEC [3]; in data set [14]) was “Active” throughout. For the same molecule, the result (in the data set with HUVEC [5]; in data set [9]; in the data set on HUVEC [11]) was Active. For the same molecule, the Activity result in the data set with HUVEC [8] is reported as “Non-Toxic”. The inhibition result in data set [13] is “inactive”.
